Laboratory results published in US12054495B2, “Substituted macrocyclic compounds and related methods of treatment” (Alkermes, Inc., priority 2019, dated 2024).

How the values were obtained:
Type in all cases: in vitro ADME
MDR1 = assay: MDCK-MDR1 permeability assay; settings: dog; for Papp A→B at 2 h, 3 μM: MDCK-MDR1, MDCK-MDR1 cells, apical to basolateral, 3 μM test compound, 2 hours at 37 degrees C; for efflux ratio at 2 h, 3 μM: MDCK-MDR1, Papp (basolateral to apical) divided by Papp (apical to basolateral), MDCK-MDR1 cells, read-out: Efflux ratio (ER)
Method: The bidirectional permeability (Apical to Basal and Basal to Apical directions) of test compounds in MDCK-MIDR1 cells were evaluated using MDCK-MIDR1 cells seeded in Solvo PreadyPort™ MIDCK 96-well plate. Once the plate was received from ReadyCell (Barcelona, Spain), it was treated as per PreadyPort™ user's manual.
For the Apical to Basolateral (A→B) permeability, 80 μL of test compound (3 μM) co-dosed with LY (Lucifer Yellow) (100 μM) in HBSS (Hank's Balanced Salt Solution) assay buffer was added to the donor side (A) while 250 μL of HBSS buffer was added to the receiver side (B). For the Basolateral to Apical (B→A) permeability, 255 μL of test compound (3 μM) in HBSS assay buffer was added to the donor side (B) while 75 μL of HBSS buffer containing LY (100 μM) was added to the receiver side (A).
The plate was placed in an incubator set at 37 degrees C. After 10 minutes of pre-warming, 5 μL aliquot was taken from donor compartment and set aside as the dosing solution. The MDCK-MDR1 incubation plate was placed back into the incubator for 2 hours of incubation at 37 degrees C. After 2 hours of incubation, 25 μL and 5 μL aliquots were removed from the receiver and donor sides, respectively. To the 5 μL aliquots taken from the donor sides (before and after a 2-hour incubation) were diluted with 20 μL of the HBSS buffer. All samples were mixed with 150 μL with acetonitrile containing internal standard (IS) and 200 μL water, and analyzed by LC-MS/MS.
The apparent permeability (Papp) was calculated using the following formula: Papp=dQ/dt×1/A×C0 where: • dQ/dt: amount of translocated material over incubation time (nmol/s) • A: area of insert (0.14 cm^2 for PreadyPort™ MDR1-96) • C0: initial concentration of product applied in apical (A→B) or basal (B→A) compartment (nmol/mL)
The efflux ratio (ER) was measured by dividing the Papp (basolateral to apical direction) by Papp (apical to basolateral direction). It is a general measure of the involvement of active processes. An ER>2 is considered positive for active transport.
The data reported in Table 3 were obtained according to the MDCK-MIDR1 permeability assay described above.

human hepatocytes = assay: Hepatocytes stability assay (human hepatocytes); settings: scaled hepatic clearance divided by liver blood flow, fu assumed unity
Method: (§1) In vitro metabolic stability was assessed using cryopreserved hepatocytes from male Sprague Dawley rats and a pool of 50 mixed gender humans (BioIVT, Baltimore, MD). The incubation mixtures were prepared by mixing 250 μL of pre-warmed KHB (Krebs-Henseleit buffer) containing 2×10^6 cell/mL of hepatocytes with 250 μL of pre-warmed KHB buffer containing 2 μM of test compounds in a 48-well plate, giving a final concentration of 1 μM test compound (0.1% DMSO) and 1×10^6 cell/mL of hepatocytes. The reaction mixture was incubated at 37 degrees C. A 50 μL aliquot of incubation mixture was taken at time points (0, 15, 30, 60, 120 and 240 minutes) and transferred into a 96-well plate containing 300 μL ice-cold acetonitrile (containing 30 ng/mL of labetalol and 10 ng/mL of Naltrexone-d3 as internal standards) and immediately placed in ice to terminate the reaction. Samples were centrifuged, and supernatants were transferred into 96-well plates for liquid chromatography with tandem mass spectrometry (LC-MS/MS) analysis to monitor the depletion of the test compound.
(§2) Data was calculated as percent remaining by assuming zero-minute time point peak area ratio (analyte/IS) as 100% and dividing remaining time point peak area ratios by zero-minute time point peak area ratio. Data were fitted to a first-order decay model to determine half-life. From a plot of log (ln) peak area against time, the slope of the line was determined. Subsequently, half-life (T1/2) and intrinsic clearance (CLint) were calculated using the equations below: Elimination rate constant (k)=(−slope) Half-life (T1/2)min=0.693/k Intrinsic Clearance (CLint) (mL/min/million cells)=(V×0.693)/T1/2 V=incubation volume mL/number of cells The in vitro T1/2 was converted to in vitro intrinsic clearance (CLint,hep) in units of mL/min/kg using the formula shown below:
(§3) [formula] The in vitro intrinsic clearance (CLint,hep) was scaled to in vivo hepatic clearance (CL,hep) using the following equation which was adapted from a well-stirred model.
(§4) [formula] where Q is the liver blood flow and fu is the fraction unbound (assumed to be unity in this case). All parameters used in the calculation are shown below (Table 4).
(§5) The extraction ratio (ER) was calculated by dividing the hepatic clearance of a compound to the liver blood flow. The data reported in Table 5 were obtained according to the human hepatocytes stability assay described above.

[1] = Hepatocytes stability assay (human hepatocytes); settings: both sexes, cryopreserved hepatocytes, 1 μM test compound, 1×10^6 cell/mL, 37 degrees C, read-out: CLint (μL/min/million cells)
Method: as §1, §2, §3, §4, §5

Row | Papp A→B at 2 h, 3 μM (MDR1) | efflux ratio at 2 h, 3 μM (MDR1) | Extraction Ratio (ER) (human hepatocytes) | hepatocyte CLint at 1 μM [1] | Compound
1 | 12 ×10⁻⁶ cm/s | 1.1 | 0.83 | 34 µL/min/1e6 cells | CS(=O)(=O)N[C@H]1CCN2C(=O)COc3c(F)cc(F)cc3C3CCC(CC3)OCC12 (stereo partly shown) [Compound 43]
2 | 1.5 ×10⁻⁶ cm/s | 10 | 0.90 | 62 µL/min/1e6 cells | CS(=O)(=O)N[C@H]1CCCN2CCOc3c(F)cc(F)cc3C3CCC(CC3)OCC12 (stereo partly shown) [Compound 58]
3 | 0.15 ×10⁻⁶ cm/s | > 100 | 0.67 | 14 µL/min/1e6 cells | CS(=O)(=O)N[C@H]1CCCN2C(=O)CCOc3ccccc3C3CCC(CC3)OCC12 (stereo partly shown) [Compound 1]
4 | 0.83 ×10⁻⁶ cm/s | 30 | 0.57 | 9 µL/min/1e6 cells | CS(=O)(=O)N[C@H]1CCCN2C(=O)COc3ncc(F)cc3C3CCC(CC3)OCC12 (stereo partly shown) [Compound 64]
5 | 21 ×10⁻⁶ cm/s | 0.66 | 0.87 | 45 µL/min/1e6 cells | CS(=O)(=O)N[C@H]1CCCN2CCOc3ccccc3C3CCC(CC3)OCC12 (stereo partly shown) [Compound 6]
6 | 24 ×10⁻⁶ cm/s | 0.49 | 0.88 | 47 µL/min/1e6 cells | CS(=O)(=O)N[C@H]1CCN2CCOc3ccccc3C3CCC(CC3)OCC12 (stereo partly shown) [Compound 39]
7 | 6.3 ×10⁻⁶ cm/s | 1.9 | 0.91 | 65 µL/min/1e6 cells | CC1(C)CN2CCC[C@H](NS(C)(=O)=O)C2COC2CCC(CC2)c2ccccc2O1 (stereo partly shown) [Compound 44]
8 | 2 ×10⁻⁶ cm/s | 5.5 | 0.83 | 33 µL/min/1e6 cells | CS(=O)(=O)N[C@H]1CCCN2CCOc3ccc(Cl)cc3C3CCC(CC3)OCC12 (stereo partly shown) [Compound 61]
9 | 26 ×10⁻⁶ cm/s | 0.55 | 0.88 | 47 µL/min/1e6 cells | CS(=O)(=O)N[C@H]1CCCN2CCOc3c(F)cccc3C3CCC(CC3)OCC12 (stereo partly shown) [Compound 13]
10 | 2 ×10⁻⁶ cm/s | 9.5 | 0.91 | 66 µL/min/1e6 cells | CC1(C)Oc2ccccc2C2CCC(CC2)OCC2[C@@H](NS(C)(=O)=O)CCCN2C1=O (stereo partly shown) [Compound 36]
11 | 3.6 ×10⁻⁶ cm/s | 5.1 | 0.91 | 65 µL/min/1e6 cells | CS(=O)(=O)N[C@H]1CCCN2C(=O)C(F)(F)Oc3ccccc3C3CCC(CC3)OCC12 (stereo partly shown) [Compound 40]
12 | 3.9 ×10⁻⁶ cm/s | 2 | 0.77 | 23 µL/min/1e6 cells | CS(=O)(=O)N[C@H]1CCN2C(=O)COc3ncccc3C3CCC(CC3)OCC12 (stereo partly shown) [Compound 18]
13 | 1.2 ×10⁻⁶ cm/s | 12 | 0.87 | 44 µL/min/1e6 cells | CS(=O)(=O)N[C@H]1CCCN2C(=O)C(F)(F)Oc3c(F)cc(F)cc3C3CCC(CC3)OCC12 (stereo partly shown) [Compound 52]
14 | 2.2 ×10⁻⁶ cm/s | 5.5 | 0.83 | 33 µL/min/1e6 cells | CS(=O)(=O)N[C@H]1CCCN2C(=O)COc3c(F)cccc3C3CCC(CC3)OCC12 (stereo partly shown) [Compound 11]
15 | 11 ×10⁻⁶ cm/s | 1.3 | 0.89 | 52 µL/min/1e6 cells | CS(=O)(=O)N[C@H]1CCN2C(=O)COc3c(F)cccc3C3CCC(CC3)OCC12 (stereo partly shown) [Compound 42]
16 | 0.47 ×10⁻⁶ cm/s | 97 | 0.81 | 28 µL/min/1e6 cells | CS(=O)(=O)N[C@H]1CCCN2C(=O)CCCOc3ccccc3C3CCC(CC3)OCC12 (stereo partly shown) [Compound 4]
17 | 0.16 ×10⁻⁶ cm/s | 51 | 0.24 | 2.1 µL/min/1e6 cells | CS(=O)(=O)N[C@H]1CCCN2C(=O)COc3ccc(Br)cc3C3CCC(CC3)OCC12 (stereo partly shown) [Compound 57]
18 | 15 ×10⁻⁶ cm/s | 0.5 | 0.84 | 34 µL/min/1e6 cells | CS(=O)(=O)N[C@H]1CCCN2CCOc3ncccc3C3CCC(CC3)OCC12 (stereo partly shown) [Compound 65]
19 | 0.29 ×10⁻⁶ cm/s | 15 | 0.55 | 8.3 µL/min/1e6 cells | CS(=O)(=O)N[C@H]1CCCN2C(=O)CCc3ccccc3C3CCC(CC3)OCC12 (stereo partly shown) [Compound 10]
20 | 0.8 ×10⁻⁶ cm/s | 34 | 0.87 | 43 µL/min/1e6 cells | CS(=O)(=O)N[C@H]1CCCN2C(=O)CCCCOc3ccccc3C3CCC(CC3)OCC12 (stereo partly shown) [Compound 3]
21 | 2.6 ×10⁻⁶ cm/s | 7.3 | 0.89 | 56 µL/min/1e6 cells | CS(=O)(=O)N[C@H]1CCN2C(=O)C(F)(F)Oc3c(F)cc(F)cc3C3CCC(CC3)OCC12 (stereo partly shown) [Compound 54]
22 | 2.8 ×10⁻⁶ cm/s | 7.9 | 0.92 | 19 µL/min/1e6 cells | CS(=O)(=O)N[C@H]1CCN2C(=O)C(F)(F)Oc3ccccc3C3CCC(CC3)OCC12 (stereo partly shown) [Compound 53]
